{"source": "patent US11185078B2", "about": "(priority 2016, dated 2021)", "type_in_all_cases": "in vivo", "key": {"[1]": {"system": "Phytophthora infestans (PHYTIN)", "conditions": "for % efficacy (% fungal attack) PHYTIN: 360 ppm, in planta"}, "[2]": {"system": "Fusarium graminearum (GIBBZE)", "conditions": "360 ppm"}, "[3]": {"system": "Septoria tritici (SEPTTR)", "conditions": "360 ppm, protective application"}}, "note": "Where a SMILES comes first, the peptide text is derived from it. Bridges are numbered along the chain shown (N, C = ends). The star is where a group is joined. ξ: configuration not given here. Pentadecanoyl(3ξ-OH,15-Gua) = N=C(N)NCCCCCCCCCCCCC(O)CC(=O)*"}
{"smiles": "CCC(C)C1NC(=O)C(NC(=O)CC(O)CCCCCCCCCCCCNC(=N)N)C(C)OC(=O)C(C)NC(=O)C(CC(N)=O)NC(=O)C(C(C)O)NC(=O)C(Cc2ccc(O)cc2)NC1=O", "note": "(stereo not drawn) [Compound 1A, fusaricidin 1A] ({Pentadecanoyl(3ξ-OH,15-Gua)}-TIYTNA; ester 1-C; configuration not given here)", "values": [{"measurement": "% efficacy (% fungal attack) PHYTIN", "setting": "[1]", "value": 100, "unit": "%"}, {"measurement": "% efficacy (% fungal attack) GIBBZE", "setting": "[2]; in planta", "value": 49, "unit": "%"}, {"measurement": "% efficacy (% fungal attack), head blight on wheat caused by Fusarium graminearum", "setting": "[2]; protective application", "value": 49, "unit": "%"}]}
{"smiles": "CCC(C)C1NC(=O)C(NC(=O)CC(O)CCCCCCCCCCCCNC(=N)N)C(C)OC(=O)C(C)NC(=O)C(CCC(N)=O)NC(=O)C(C(C)O)NC(=O)C(Cc2ccc(O)cc2)NC1=O", "note": "(stereo not drawn) [Compound 1B, fusaricidin 1B] ({Pentadecanoyl(3ξ-OH,15-Gua)}-TIYTQA; ester 1-C; configuration not given here)", "values": [{"measurement": "% efficacy (% fungal attack), late blight on tomato caused by Phytophthora infestans", "setting": "[1]; 7.2 ppm, protective application", "value": 44, "unit": "%"}, {"measurement": "% efficacy (% fungal attack) PHYTIN", "setting": "[1]", "value": 100, "unit": "%"}, {"measurement": "% efficacy (% fungal attack), head blight on wheat caused by Septoria tritici", "setting": "[3]", "value": 80, "unit": "%"}]}
